{"source": "paper PMC11653702", "about": "“Targeting the SPC25/RIOK1/MYH9 Axis to Overcome Tumor Stemness and Platinum Resistance in Epithelial Ovarian Cancer” (Advanced Science, 2024)", "key": {"OVCAR8 cells": {"test_system": "OVCAR8 cells", "experiment": "Annexin V/PI apoptosis, OVCAR8", "assay_type": "cell-based, human", "details": "replicates #1-#3", "experimental": "Fluorescence-Activated Cell Sorting Assay: For apoptosis analysis, we used an Annexin V-FITC/PI Apoptosis Detection Kit (#A211-01; Vazyme Biotech), according to the manufacturer’s instructions. We considered the total proportion of Annexin V-positive cells (quadrants II and III) to be the apoptotic rate, regardless of the PI status. All samples were analyzed on a flow cytometer (cytoFLEX LX; Beckman Coulter, Indianapolis, IN, USA), and percentages of apoptotic cells were analyzed using CytExpert (Beckman Coulter)."}, "OVCAR3 cells": {"test_system": "OVCAR3 cells", "experiment": "Intraperitoneal tumor model, bioluminescence, OVCAR3", "assay_type": "in vivo, human EOC cells in BALB/c-Nude mice", "details": "SPC25-overexpressing OVCAR3, 6 weeks CDDP", "from_the_text": "Subsequently, we selected 4 representative EOC cell lines (Figure S1F,G, Supporting Information) and validated the role of SPC25 in mediating platinum resistance in EOC through a series of in vitro and in vivo experiments. […] To further establish an EOC mouse model, we intraperitoneally injected BALB/c‐Nude mice with EOC cells with stable luciferase expression. CDDP treatment (three times per week, a week as a cycle) was initiated when the bioluminescence signal reached 2 × 10^7 p/s/cm^2/sr.\nIn the intraperitoneal tumor model, 1 × 10^6 of the indicated cells stably expressing luciferase were injected intraperitoneally into the mice. Treatment with saline (Vehicle), CDDP (5 mg/kg, 3 times per week for 1 week), CBP1 (10 mg/kg, once in 2 days), or a combination of CDDP (5 mg/kg, 3 times per week for 1 week) and CBP1 (10 mg/kg, once in 2 days) was initiated when the bioluminescence signal reached 2 × 10^7 p/s/cm^2/sr for 6 weeks of continuous treatment cycles. The mice were sacrificed when they became moribund, as determined by an observer blinded to the treatment. Finally, their tumors were excised for qRT‐PCR and Western blotting."}, "SKOV3 cells": {"test_system": "SKOV3 cells", "experiment": "Cell Counting Kit-8 viability, SKOV3", "assay_type": "cell-based, human", "details": "SPC25-silenced SKOV3", "experimental": "Cell Viability Assay: The indicated cells were seeded into 96-well plates at a density of 4 × 10^3 cells per well. Next, the Cell Counting Kit-8 reagent (Dojindo) was added to the wells, followed by incubation at 37°C for 2 h in the dark, after which the optical density at 450 nm was determined on a microplate reader (EPOCH2; BioTek, USA). Each cell line was represented using triplicate wells, and the experiment was repeated three times."}, "SPC25": {"test_system": "SPC25", "experiment": "Expression of SPC25 across different generation CDX tumor of Blab/c Nude mice in CDDP group (Ct)", "assay_type": "in vivo", "details": "for Gapdh (Ct): Gapdh_rep1-3, single replicates; for Expression of SPC25 (Ct): SPC25_rep1-3, single replicates", "from_the_text": "Supplement ADVS-11-2406688-s001.zip/SourceData.xlsx, sheet \"Fig1E-1G,S1F\" | column: Expression of SPC25 in CDDP-resistant and Parental CDX tumor of Blab/c Nude mice (Ct)"}}, "note": "Values joined by “and” are separate entries in the source; they are usually repeats but may differ in a detail not shown here. Equal entries are not always repeated."}
{"smiles": "[NH2][Pt]([NH2])([Cl])[Cl]", "note": "[CDDP, cisplatin]", "values": [{"measurement": "PI+/AnnexinV+", "setting": "OVCAR8 cells; OVCAR8 Scramble, CDDP 10μM", "value": "7.42 and 8.61 and 9.34"}, {"measurement": "PI+/AnnexinV+", "setting": "OVCAR8 cells; OVCAR8 sh-SPC25#1, CDDP 10μM", "value": "24.86 and 27.38 and 21.74"}, {"measurement": "PI+/AnnexinV+", "setting": "OVCAR8 cells; OVCAR8 sh-SPC25#2, CDDP 10μM", "value": "24.57 and 21.02 and 29.26"}, {"measurement": "CDDP resistance of tumors", "setting": "OVCAR3 cells", "value": "notable increase in CDDP resistance"}, {"measurement": "CDDP sensitivity", "setting": "SKOV3 cells", "value": "enhanced CDDP sensitivity"}, {"measurement": "Gapdh (Ct)", "setting": "SPC25; 1st generation", "value": "17.013 Ct and 17.354 Ct and 17.197 Ct"}, {"measurement": "Expression of SPC25 (Ct)", "setting": "SPC25; 1st generation", "value": "27.496 Ct and 27.737 Ct and 27.628 Ct"}, {"measurement": "Gapdh (Ct)", "setting": "SPC25; 2nd generation", "value": "16.968 Ct and 16.875 Ct and 17.154 Ct"}, {"measurement": "Expression of SPC25 (Ct)", "setting": "SPC25; 2nd generation", "value": "26.835 Ct and 27.032 Ct and 26.963 Ct"}, {"measurement": "Gapdh (Ct)", "setting": "SPC25; 3rd generation", "value": "16.826 Ct and 17.002 Ct and 16.952 Ct"}, {"measurement": "Expression of SPC25 (Ct)", "setting": "SPC25; 3rd generation", "value": "26.448 Ct and 26.397 Ct and 26.314 Ct"}, {"measurement": "Gapdh (Ct)", "setting": "SPC25; 4th generation", "value": "16.654 Ct and 16.763 Ct and 16.924 Ct"}, {"measurement": "Expression of SPC25 (Ct)", "setting": "SPC25; 4th generation", "value": "25.574 Ct and 25.623 Ct and 25.706 Ct"}]}
